According to article PMC10026764, “Overcoming the imatinib-resistant BCR-ABL mutants with new ureidobenzothiazole chemotypes endowed with potent and broad-spectrum anticancer activity” (Journal of Enzyme Inhibition and Medicinal Chemistry, 2023):
Where “and” joins values, the source holds several entries; their conditions need not be identical. Equal entries are not always repeated. Where two headings read alike, the source gives them in different places.

Experiments:
MDA-MB-468 = assay: NCI-60 five-dose SRB assay; type: cell-based; settings: Homo sapiens; MDA-MB-468, breast cancer
U251 = assay: cells; type: cell-based; settings: U251, CNS cancer
COLO 205 = assay: NCI-60 five-dose SRB assay; type: cell-based; settings: Homo sapiens; COLO 205, colon cancer
NCI-H522 = assay: NCI-60 five-dose SRB assay; type: cell-based, human
HT29 = assay: NCI-60 five-dose SRB assay; type: cell-based, human; settings: HT29, colon cancer
L132 normal cell = assay: MTT antiproliferative assay; settings: Homo sapiens, L132, 72 h, read-out: GI50 L132
Excerpt: (§1) These cellular outcomes define the impact of BCR-ABL inhibition on the proliferation of K-562 cells.

SK-MEL-2 = assay: NCI-60 five-dose SRB assay; type: cell-based; settings: Homo sapiens; SK-MEL-2, melanoma
NCI-H460 = assay: cells; type: cell-based
HOP-92 = assay: NCI-60 five-dose SRB assay; type: cell-based; settings: Homo sapiens; HOP-92, non-small cell lung cancer
SF-539 = assay: NCI-60 five-dose SRB assay; type: cell-based; settings: Homo sapiens; SF-539, CNS cancer
BCR-ABL^WT = BCR-ABL^WT (Homo sapiens, UniProt P00519); assay: In vitro kinase screening (RBC), BCR-ABL^WT; type: biochemical; settings: 10-dose IC50 mode, 3-fold serial dilution, 10 μM ATP
Sequence of BCR-ABL^WT (P00519 27-1130): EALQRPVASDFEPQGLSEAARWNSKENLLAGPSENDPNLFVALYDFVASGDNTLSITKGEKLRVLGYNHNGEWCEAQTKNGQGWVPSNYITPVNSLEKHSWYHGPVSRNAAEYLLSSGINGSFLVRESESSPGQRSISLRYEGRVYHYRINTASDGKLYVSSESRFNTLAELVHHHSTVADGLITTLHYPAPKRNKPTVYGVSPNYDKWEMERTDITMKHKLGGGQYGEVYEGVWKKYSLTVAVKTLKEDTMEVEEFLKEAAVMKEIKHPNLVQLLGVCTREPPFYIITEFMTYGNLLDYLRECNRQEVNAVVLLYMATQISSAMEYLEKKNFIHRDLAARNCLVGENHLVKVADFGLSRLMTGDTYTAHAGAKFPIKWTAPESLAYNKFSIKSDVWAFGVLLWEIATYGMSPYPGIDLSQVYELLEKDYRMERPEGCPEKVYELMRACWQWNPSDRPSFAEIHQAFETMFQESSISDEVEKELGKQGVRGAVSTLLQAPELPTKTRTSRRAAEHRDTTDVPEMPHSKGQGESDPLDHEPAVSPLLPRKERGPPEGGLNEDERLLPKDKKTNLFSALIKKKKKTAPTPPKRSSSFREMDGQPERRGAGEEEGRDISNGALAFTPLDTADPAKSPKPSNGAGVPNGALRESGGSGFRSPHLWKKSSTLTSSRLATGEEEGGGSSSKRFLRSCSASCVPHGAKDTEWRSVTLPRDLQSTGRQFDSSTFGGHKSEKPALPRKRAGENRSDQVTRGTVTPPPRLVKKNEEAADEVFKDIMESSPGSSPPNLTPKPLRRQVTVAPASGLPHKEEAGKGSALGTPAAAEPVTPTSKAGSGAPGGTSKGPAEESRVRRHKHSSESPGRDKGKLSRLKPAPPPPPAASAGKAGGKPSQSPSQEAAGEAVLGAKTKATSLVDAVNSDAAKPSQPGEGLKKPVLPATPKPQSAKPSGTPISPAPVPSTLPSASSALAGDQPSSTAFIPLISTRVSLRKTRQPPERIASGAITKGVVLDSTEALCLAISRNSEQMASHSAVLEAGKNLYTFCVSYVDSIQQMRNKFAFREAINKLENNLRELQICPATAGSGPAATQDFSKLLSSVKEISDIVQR

TK-10 = assay: NCI-60 five-dose SRB assay; type: cell-based; settings: Homo sapiens; TK-10, renal cancer
CCRF-CEM = assay: NCI-60 five-dose SRB assay; type: cell-based; settings: Homo sapiens, leukaemia
UO-31 = assay: NCI-60 five-dose SRB assay; type: cell-based, human; settings: UO-31, renal cancer
SK-MEL-28 = assay: NCI-60 five-dose SRB assay; type: cell-based; settings: Homo sapiens; SK-MEL-28, melanoma
MDA-MB-435 = assay: NCI-60 five-dose SRB assay; type: cell-based; settings: Homo sapiens; MDA-MB-435, melanoma
SW-620 = assay: NCI-60 five-dose SRB assay; type: cell-based; settings: Homo sapiens; SW-620, colon cancer
OVCAR-8 = assay: NCI-60 five-dose SRB assay; type: cell-based; settings: Homo sapiens; OVCAR-8, ovarian cancer
LOX IMVI = assay: NCI-60 five-dose SRB assay; type: cell-based; settings: Homo sapiens, melanoma
HS 578T = assay: NCI-60 five-dose SRB assay; type: cell-based; settings: Homo sapiens, breast cancer
OVCAR-3 = assay: NCI-60 five-dose SRB assay; type: cell-based, human; settings: OVCAR-3, ovarian cancer
M14 = assay: NCI-60 five-dose SRB assay; type: cell-based, human; settings: M14, melanoma
HCT-116 = assay: NCI-60 five-dose SRB assay; type: cell-based; settings: Homo sapiens; HCT-116, colon cancer
UACC-62 = assay: NCI-60 five-dose SRB assay; type: cell-based; settings: Homo sapiens; UACC-62, melanoma
SK-MEL-5 = assay: cells; type: cell-based; settings: SK-MEL-5, melanoma
RXF 393 = assay: NCI-60 five-dose SRB assay; type: cell-based; settings: Homo sapiens; RXF 393, renal cancer
NCI-H322M = assay: NCI-60 five-dose SRB assay; type: cell-based, human
ACHN = assay: NCI-60 five-dose SRB assay; type: cell-based, human; settings: renal cancer
SK-OV-3 = assay: NCI-60 five-dose SRB assay; type: cell-based; settings: Homo sapiens; SK-OV-3, ovarian cancer
NCI-H226 = assay: NCI-60 five-dose SRB assay; type: cell-based; settings: Homo sapiens; NCI-H226, non-small cell lung cancer
T-47D = assay: NCI-60 five-dose SRB assay; type: cell-based; settings: Homo sapiens, T47D, breast cancer
MDA-MB-231 = assay: NCI-60 five-dose SRB assay; type: cell-based; settings: Homo sapiens; MDA-MB-231, breast cancer
786-0 = assay: NCI-60 five-dose SRB assay; type: cell-based; settings: Homo sapiens; 786-0, renal cancer
leukaemia K-562 cells = assay: MTT antiproliferative assay
Excerpt: as §1

SNB-75 = assay: NCI-60 five-dose SRB assay; type: cell-based, human; settings: SNB-75, CNS cancer
NCI 60-cell line panel = assay: cells; type: cell-based
[1] = Homo sapiens, read-out: LC50 (the source's name)

CCN1CCN(c2ccc(NC(=O)Nc3nc4ccc(-c5ccccc5OC)cc4s3)cc2)CC1 [Compound 2b]
GI50 (MDA-MB-468): 2.17 µM
GI50 (U251; Homo sapiens, U-251): 1.57 µM
CC50 (U251; Homo sapiens, U-251, read-out: LC50 (the source's name)): 5.51 µM
TGI (U251): 2.94 µM
GI50 (COLO 205): 1.97 µM
GI50 (NCI-H522; Homo sapiens, NCI-H522, NCI-H522, non-small cell lung cancer): ~1.76 µM
GI50 (NCI-H522; NCI-H522, non-small cell lung cancer): 1.75 µM
TGI (HT29): 2.70 µM
GI50 (HT29; Homo sapiens, HT-29): 1.31 µM
CC50 (HT29; Homo sapiens, HT-29, read-out: LC50 (the source's name)): 5.57 µM
GI50 (L132 normal cell): 17.9 µM
GI50 (SK-MEL-2): 1.94 µM
GI50 (NCI-H460; Homo sapiens, NCI-H460, NCI-H460, non-small cell lung cancer): ~1.76 µM
CC50 (NCI-H460; Homo sapiens, NCI-H460, NSCL cancer, read-out: LC50 (the source's name)): 6.01 µM
TGI (NCI-H460; NCI-H460, NSCL cancer): 3.27 µM
GI50 (NCI-H460; NCI-H460, non-small cell lung cancer): 1.77 µM
GI50 (HOP-92): 1.47 µM
GI50 (SF-539): 1.6 µM
IC50 (BCR-ABL^WT): 0.0007 µM and 0.000701 µM
GI50 (TK-10): 2.12 µM
GI50 (CCRF-CEM): 1.81 µM
GI50 (UO-31; Homo sapiens): 1.52 µM
CC50 (UO-31; [1]): 5.63 µM
TGI (UO-31): 2.92 µM
GI50 (SK-MEL-28): 1.76 µM
GI50 (MDA-MB-435): 1.71 µM
GI50 (SW-620): 1.94 µM
GI50 (OVCAR-8): 1.99 µM
GI50 (LOX IMVI): 1.7 µM
GI50 (HS 578T): 1.95 µM
GI50 (OVCAR-3; Homo sapiens): 1.64 µM
LC50 (concentration killing 50% of cells) (OVCAR-3; Homo sapiens): 5.9 µM
TGI (OVCAR-3): 3.11 µM
GI50 (M14; Homo sapiens): 1.62 µM
LC50 (concentration killing 50% of cells) (M14; Homo sapiens): 5.66 µM
TGI (M14): 3.03 µM
GI50 (HCT-116): 1.58 µM
GI50 (UACC-62): 1.87 µM
GI50 (SK-MEL-5; Homo sapiens): 1.73 µM
LC50 (50% lethal concentration) (SK-MEL-5; Homo sapiens): 5.63 µM
TGI (SK-MEL-5): 3.12 µM
GI50 (RXF 393): 1.7 µM
CC50 (NCI-H322M; Homo sapiens, NSCL cancer, read-out: LC50 (the source's name)): 5.99 µM
GI50 (NCI-H322M; Homo sapiens, non-small cell lung cancer): 1.53 µM
TGI (NCI-H322M; NSCL cancer): 3.03 µM
GI50 (ACHN; Homo sapiens): 1.74 µM
CC50 (ACHN; [1]): 5.58 µM
TGI (ACHN): 3.11 µM
GI50 (SK-OV-3): 1.79 µM
GI50 (NCI-H226): 2.09 µM
GI50 (T-47D): 1.58 µM
GI50 (MDA-MB-231): 1.72 µM
GI50 (786-0): 1.8 µM
GI50 (leukaemia K-562 cells; Homo sapiens, K562, 72 h, read-out: GI50 K-562): 3.39 µM
SI: selectivity index (GI50 (L132)/GI50 (K562)) (leukaemia K-562 cells; MTT, 72 h): 5.3
GI50 (SNB-75; Homo sapiens): 1.49 µM
CC50 (SNB-75; [1]): 5.46 µM
TGI (SNB-75): 2.86 µM
GI50 (NCI 60-cell line panel; Homo sapiens, 60 cell, all ovarian cancer cell lines, read-out: GI50): < 2 µM
GI50 (NCI 60-cell line panel; Homo sapiens, 60 cell, all tested melanoma cell lines, read-out: GI50): 1.54 to 2.51 µM
LC50 (NCI 60-cell line panel; Homo sapiens, 60 cell, several cancer cells): < 10 µM
GI50 (NCI 60-cell line panel; Homo sapiens, COLO205, HCC-2998, HCT-116 and HCT-15 colon cancer cells, read-out: GI50): 1.07 to 2.65 µM
GI50 (NCI 60-cell line panel; all examined cell lines): one-digit micromolar
TGI (NCI 60-cell line panel; several cancer cells): < 5.0 µM
